# Patent US10633419B2, “Immunomodulators” (BRISTOL-MYERS SQUIBB COMPANY, priority 2014, dated 2020)
# Positions of bridges follow the written chain, without caps; N, C: chain ends. Non-standard residues stand in square brackets, D forms with d. Residues, ends and D or L forms follow the SMILES beside them. *: point of attachment. X6 = O=C(O)CCCCCCCCCCCCCCCCC(=O)N[C@@H](CCC(=O)NCCCOCCOCCOCCCN*)C(=O)O; Trp(1-CH2COOH) = N[C@@H](Cc1cn(CC(=O)O)c2ccccc12)C(=O)O; NH(CH2)14COOH = O=C(O)CCCCCCCCCCCCCCN*; d(cisHyp) = O=C(O)[C@H]1C[C@@H](O)CN1; PEG6 = NCCOCCOCCOCCOCCOCCOCCC(=O)O; Hyp = O=C(O)[C@@H]1C[C@@H](O)CN1; Undecanoyl = CCCCCCCCCCC(=O)*; NMeNle = CCCC[C@H](NC)C(=O)O; NMeA = CN[C@@H](C)C(=O)O; Aun = NCCCCCCCCCCC(=O)O; Dab = NCC[C@H](N)C(=O)O; Dap = NC[C@H](N)C(=O)O
# Target: T1, PD-L1 (Homo sapiens, UniProt Q9NZQ7)
# T1 construct: hPDL1(19-239)-TVMV-His; made in house; host or cells: HEK293T
# T1 sequence (Q9NZQ7 with tags, fused parts or gaps): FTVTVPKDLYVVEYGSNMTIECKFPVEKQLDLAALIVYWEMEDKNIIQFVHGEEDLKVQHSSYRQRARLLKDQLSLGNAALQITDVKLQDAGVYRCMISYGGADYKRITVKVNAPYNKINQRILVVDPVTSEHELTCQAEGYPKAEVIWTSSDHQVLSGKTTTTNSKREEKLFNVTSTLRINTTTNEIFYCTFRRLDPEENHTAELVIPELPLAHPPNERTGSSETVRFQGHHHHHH
# Experiment: PD-1/PD-L1 Homogenous Time-Resolved Fluorescence (HTRF) binding assay (PD-1-Ig/PD-L1-His)
# Conditions: inhibition of PD-1-Ig binding to PD-L1-TVMV-His; value given as range class; read-out: HTRF IC50
# Text: The ability of the macrocyclic peptides of the present disclosure to bind to PD-L1 was investigated using a PD-1/PD-L1 Homogenous Time-Resolved Fluorescence (HTRF) binding assay.
# Homogenous Time-Resolved Fluorescence (HTRF) Assays of Binding of Soluble PD-1 to Soluble PD-L1. Soluble PD-1 and soluble PD-L1 refers to proteins with carboxyl-end truncations that remove the transmembrane-spanning regions and are fused to heterologous sequences, specifically the Fc portion of the human immunoglobuling G sequence (Ig) or the hexahistidine epitope tag (His). All binding studies were performed in an HTRF assay buffer consisting of dPBS supplemented with 0.1% (w/v) bovine serum albumin and 0.05% (v/v) Tween-20. For the PD-1-Ig/PD-L1-His binding assay, inhibitors were pre-incubated with PD-L1-His (10 nM final) for 15 m in 4 μl of assay buffer, followed by addition of PD-1-Ig (20 nM final) in 1 μl of assay buffer and further incubation for 15m. PD-L1 fusion proteins from either human, cynomologous macaques, mouse, or other species were used. HTRF detection was achieved using europium crypate-labeled anti-Ig monoclonal antibody (1 nM final) and allophycocyanin (APC) labeled anti-His monoclonal antibody (20 nM final). Antibodies were diluted in HTRF detection buffer and 5 μl was dispensed on top of binding reaction. The reaction was allowed to equilibrate for 30 minutes and signal (665 nm/620 nm ratio) was obtained using an EnVision fluorometer. Additional binding assays were established between PD-1-Ig/PD-L2-His (20 and 5 nM, respectively), CD80-His/PD-L1-Ig (100 and 10 nM, respectively) and CD80-His/CTLA4-Ig (10 and 5 nM, respectively). Binding/competition studies between biotinylated Compound No. 71 and human PD-L1-His were performed as follows. Macrocyclic peptide inhibitors were pre-incubated with PD-L1-His (10 nM final) for 60 minutes in 4 μl of assay buffer followed by addition of biotinylated Compound No. 71 (0.5 nM final) in 1 μl of assay buffer. Binding was allowed to equilibrate for 30 minutes followed by addition of europium crypated labeled Streptavidin (2.5 pM final) and APC-labeled anti-His (20 nM final) in 5 μl of HTRF buffer. The reaction was allowed to equilibrate for 30m and signal (665 nm/620 nm ratio) was obtained using an EnVision fluorometer.
# Recombinant Proteins. Carboxyl-truncated human PD-1 (amino acids 25-167) with a C-terminal human Ig epitope tag [hPD-1 (25-167)-3S-IG] and human PD-L1 (amino acids 18-239) with a C-terminal His epitope tag [hPD-L1(19-239)-tobacco vein mottling virus protease cleavage site (TVMV)-His] were expressed in HEK293T cells and purified sequentially by recombinant Protein A affinity chromatography and size exclusion chromatography. Human PD-L2-His (Sino Biologicals), CD80-His (Sino Biologicals), CTLA4-Ig (RnD Systems) were all obtained through commercial sources.
row,Structure (SMILES),IC50
1,CCCC[C@H]1C(=O)N(C)[C@@H](CCCC)C(=O)N[C@@H](CCC(=O)O)C(=O)N[C@H](C(=O)NCC(=O)N[C@@H](Cc2cn(CCOCCOCCOCCOCCOCCOCCOCCOCCOCCOCCOCCNC(=O)CC[C@H](NC(=O)CCCCCCCCCCCCCCCCC(=O)O)C(=O)O)nn2)C(=O)O)CSCC(=O)N[C@@H](Cc2ccc(O)cc2)C(=O)N2CCCC[C@H]2C(=O)N[C@@H](CC(N)=O)C(=O)N2CCC[C@H]2C(=O)N[C@@H](CNC)C(=O)N[C@@H](CC(C)C)C(=O)N2C[C@H](O)C[C@H]2C(=O)N[C@@H](Cc2c[nH]c3ccccc23)C(=O)N[C@@H](CCN)C(=O)N[C@@H](Cc2cn(CC(=O)O)c3ccccc23)C(=O)N1C [Example 14107],0.1 to 1.6 µM
2,CCCC[C@H]1C(=O)N(C)[C@@H](CCCC)C(=O)N[C@@H](CC(C)C)C(=O)N[C@H](C(=O)NCCOCCOCCOCCOCCOCCOCCC(=O)NCCCCCCCCCCC(=O)O)CSCC(=O)N[C@@H](Cc2ccc(O)cc2)C(=O)N(C)[C@@H](C)C(=O)N[C@@H](CC(N)=O)C(=O)N2CCC[C@H]2C(=O)N[C@@H](CO)C(=O)N[C@@H](CCC(N)=O)C(=O)N2C[C@H](O)C[C@@H]2C(=O)N[C@@H](Cc2c[nH]c3ccccc23)C(=O)N[C@@H](CO)C(=O)N[C@@H](Cc2cn(CC(=O)O)c3ccccc23)C(=O)N1C [Example 11060] ({CH2CO}-Y[NMeA]NPSQ[d(cisHyp)]WS[Trp(1-CH2COOH)][NMeNle][NMeNle]LC[PEG6][Aun]-OH; thioether N-14),0.1 to 1.6 µM
3,CCCC[C@H]1C(=O)N(C)[C@@H](CCCC)C(=O)N[C@@H](CC(C)C)C(=O)N[C@H](C(=O)NCC(=O)N[C@@H](CC(=O)NCCCOCCOCCOCCCNC(=O)CC[C@H](NC(=O)CCCCCCCCCCCCCCCCC(=O)O)C(=O)O)C(=O)O)CSCC(=O)N[C@@H](Cc2ccc(O)cc2)C(=O)N(C)[C@@H](C)C(=O)N[C@@H](CC(N)=O)C(=O)N2CCC[C@H]2C(=O)N[C@@H](CN)C(=O)N[C@@H](CC(C)C)C(=O)N2C[C@H](O)C[C@@H]2C(=O)N[C@@H](Cc2c[nH]c3ccccc23)C(=O)N[C@@H](CCN)C(=O)N[C@@H](Cc2cn(CC(=O)O)c3ccccc23)C(=O)N1C [Example 11160] ({CH2CO}-Y[NMeA]NP[Dap]L[d(cisHyp)]W[Dab][Trp(1-CH2COOH)][NMeNle][NMeNle]LCGD(X6)-OH; thioether N-14),0.1 to 1.6 µM

# Further lines, results first:
row,IC50,Structure (SMILES)
1,0.01 to 0.099 µM,CCCC[C@H]1C(=O)N(C)[C@@H](CCCC)C(=O)N[C@@H](CC(C)C)C(=O)N[C@H](C(=O)NCC(=O)N[C@H](CC(=O)O)C(=O)NCCCCCCCCCCCCCCC(=O)O)CSCC(=O)N[C@@H](Cc2ccc(O)cc2)C(=O)N(C)[C@@H](C)C(=O)N[C@@H](CC(N)=O)C(=O)N2CCC[C@H]2C(=O)N[C@@H](CN)C(=O)N[C@@H](CC(C)C)C(=O)N2C[C@H](O)C[C@H]2C(=O)N[C@@H](Cc2c[nH]c3ccccc23)C(=O)N[C@@H](CCN)C(=O)N[C@@H](Cc2cn(CC(=O)O)c3ccccc23)C(=O)N1C [Example 11195] ({CH2CO}-Y[NMeA]NP[Dap]L[Hyp]W[Dab][Trp(1-CH2COOH)][NMeNle][NMeNle]LCG[dD]-{NH(CH2)14COOH}; thioether N-14)
2,0.01 to 0.099 µM,CCCCCCCCCCC(=O)NCCCC[C@H](NC(=O)[C@H](CC(=O)O)NC(=O)[C@@H]1CSCC(=O)N[C@@H](Cc2ccc(O)cc2)C(=O)N(C)[C@@H](C)C(=O)N[C@@H](CC(N)=O)C(=O)N2CCC[C@H]2C(=O)N[C@@H](Cc2cnc[nH]2)C(=O)N[C@@H](CCC(=O)O)C(=O)N2C[C@H](O)C[C@H]2C(=O)N[C@@H](Cc2c[nH]c3ccccc23)C(=O)N[C@@H](CCN)C(=O)N[C@@H](Cc2cn(CC(=O)O)c3ccccc23)C(=O)N(C)[C@@H](CCCC)C(=O)N(C)[C@@H](CCCC)C(=O)N[C@@H](CC(C)C)C(=O)N1)C(N)=O [Example 11011] ({CH2CO}-Y[NMeA]NPHE[Hyp]W[Dab][Trp(1-CH2COOH)][NMeNle][NMeNle]LCDK(Undecanoyl)-NH2; thioether N-14)
